Data published in publication PMC8950706, “Influence of Substitutions in the Binding Motif of Proline-Rich Antimicrobial Peptide ARV-1502 on 70S Ribosome Binding and Antimicrobial Activity” (International Journal of Molecular Sciences, 2022).
Structures can show the parent of a compound that is named as a salt.

Legend:
E. coli 70S ribosome = assay: Competitive fluorescence polarization assay against Cf-ARV-1502 (Ki); type: binding, E. coli BW25113; conditions: 20 nmol/L Cf-ARV-1502, 0.5 µmol/L ribosome, 28 °C, 90 min + 90 min, Ki calculated from IC50; for Ki: read-out: Ki (nmol/L), competition with Cf-ARV-1502
Experimental: E. coli 70S ribosomes were prepared using a previously described protocol that was slightly modified. Briefly, E. coli BW25113 was cultivated in Luria-Bertani (LB) medium and cells were harvested after reaching an optical density of ~4 at 600 nm by centrifugation (5000× g, 15 min, 4 °C, Rotor JLA 8.100, Avanti J-20 XP, Beckmann Coulter, Krefeld, Germany). The cell pellets were frozen and stored at −80 °C. Cells were resuspended in ribosome buffer (2 mL/g cells; 20 mmol/L HEPES-KOH, 6 mmol/L MgCl2, 30 mmol/L NH4Cl, 4 mmol/L 2-mercaptoethanol, pH 7.6). Lysozyme (0.25 g/L cell suspension) was added, and the mixture was incubated on ice for 30 min. Cells were disrupted using the bead mill homogenizer FastPrep-24™ 5G (40 s, 4 m/s, 6 cycles, MP Biomedicals Germany GmbH, Eschwege, Germany) and zirconia/silica beads (0.1 mm diameter). The lysate was centrifuged (1500× g, 5 min, 4 °C, Rotor S4180, Allegra 21R, Beckmann Coulter) and the supernatant was incubated with DNase (5 U/mL) on ice for 60 min.
Dissociation and inhibitory constants were determined in black 384-well-plates (Greiner Bio-One GmbH, Frickenhausen, Germany) blocked with 0.5% (w/v) casein in phosphate buffered saline (PBS, 8.8 mmol/L Na2HPO4×12 H2O, 1.2 mmol/L KH2PO4, 0.3 mol/L NaCl, pH 7.4) containing 0.05% (w/v) Tween® 20 (PBST) overnight at 4 °C and washed three times with PBST.
Ribosome solution was added (10 µmol/L) and the plate was incubated after centrifugation (2 min, 500× g, Rotor S2096, Allegra^TM 21R, Beckmann Coulter) at 28 °C for 90 min. Cf-labeled peptide was added (10 µL; final concentration of 20 nmol/L; final ribosome concentration of 0.5 µmol/L) and the plate was centrifuged and incubated again (90 min, 28 °C, dark). […] Kd and IC50 values were calculated by fitting the data with a variable slope parameter [y = min + (max − min)/(1 + (x/Kd) ^−Hill slope) ] using SigmaPlot 13 (Systat Software Inc., San Jose, CA, USA). The obtained IC50 values were used to calculate the Ki values.

E. coli BW25113 = assay: Checkerboard assay (FICI); type: cell-based, Escherichia coli; conditions: E. coli BW25113, 25% MHB2; synergy FICI ≤ 0.5, antagonism FICI ≥ 4; Table S6
Experimental: Synergy was tested in sterile 96-well plates (polystyrene F-bottom, Greiner Bio-One GmbH) using a total volume of 100 μL per well. […] Plates were incubated (37 °C, 20 h) and the optical density recorded at 595 nm using a microplate reader (Victor3, Perkin Elmer Inc., Waltham, MA, USA). The fractional inhibitory concentration index (FICI) was calculated by the equation FICI = […] = (A/MICA) + (B/MICB), where MICA/B are the MICs of an antimicrobial peptide (A) and one of the three tested antibiotics (B) alone and A and B are the MICs of combined antimicrobials. Synergy was defined as FICI ≤ 0.5, antagonism as FICI ≥ 4 and additive or indifference as FICI between 0.5 and 4.

| Compound | Ki (E. coli 70S ribosome) [nmol/L] | Ki (nmol/L), competition with Cf-ARV-1502 (E. coli 70S ribosome) | Ki (nmol/L), competition with Cf-ARV-1502 (E. coli 70S ribosome; listed as kanamycin) | Checkerboard assay (FICI), antibiotic combined with peptide (E. coli BW25113) | Ki (nmol/L), competition with Cf-ARV-1502 (E. coli 70S ribosome; listed as streptomycin) |
| --- | --- | --- | --- | --- | --- |
| O=C(N[C@H](CO)[C@H](O)c1ccc([N+](=O)[O-])cc1)C(Cl)Cl [Chloramphenicol] | 1700 ± 481 | – | – | – | – |
| NC[C@H]1O[C@H](O[C@H]2[C@H](O)[C@@H](O[C@H]3O[C@H](CO)[C@@H](O)[C@H](N)[C@H]3O)[C@H](N)C[C@@H]2N)[C@H](O)[C@@H](O)[C@@H]1O [Kanamycin, kanamycin sulfate] | – | no fit | did not affect the binding of Cf-ARV-1502 | neither synergistic nor antagonistic effects | – |
| [H]/N=C(/N)N[C@H]1[C@H](O)[C@@H](O)[C@H](O[C@@H]2O[C@@H](C)[C@](O)(C=O)[C@H]2O[C@@H]2O[C@@H](CO)[C@H](O)[C@@H](O)[C@@H]2NC)[C@@H](N/C(N)=N\[H])[C@@H]1O [Streptomycin] | – | no fit | – | – | did not affect the binding of Cf-ARV-1502 |
| CC[C@H]1OC(=O)[C@H](C)[C@@H](O[C@H]2C[C@@](C)(OC)[C@@H](O)[C@H](C)O2)[C@H](C)[C@@H](O[C@@H]2O[C@H](C)C[C@H](N(C)C)[C@H]2O)[C@](C)(O)C[C@@H](C)C(=O)[C@H](C)[C@@H](O)[C@]1(C)O [Erythromycin] | 23 ± 1.6 | – | – | – | – |
